Assay results taken from the kinase profiling compilation of Christmann-Franck et al. (2016).

Legend:
Details in all cases: compound 10.0 µM
[1] = target: TEC (human) (UniProt P42680)
[2] = target: DCLK3 (human) (UniProt Q9C098)
[3] = target: DAPK1 (human) (UniProt P53355)
[4] = target: MAP3K2 (human) (UniProt Q9Y2U5)
[5] = target: CHUK (human) (UniProt O15111)
[6] = target: EPHB1 (human) (UniProt P54762)
[7] = target: MLTK (human) (UniProt Q9NYL2)
[8] = target: ROCK1 (human) (UniProt Q13464)
[9] = target: JAK3 JH1 catalytic (human) (UniProt P52333)
[10] = target: MAPK4 (human) (UniProt P31152)
[11] = target: MAP4K1 (human) (UniProt Q92918)
[12] = target: CAMK2A (human) (UniProt Q9UQM7)
[13] = target: SIK1 (human) (UniProt P57059)
[14] = target: MAP3K1 (human) (UniProt Q13233)
[15] = target: PHKG2 (human) (UniProt P15735)
[16] = target: CDK15 (human) (UniProt Q96Q40)
[17] = target: CAMK4 (human) (UniProt Q16566)
[18] = target: EPHB3 (human) (UniProt P54753)
[19] = target: VRK2 (human) (UniProt Q86Y07)
[20] = target: ZAP70 (human) (UniProt P43403)
[21] = target: BRSK1 (human) (UniProt Q8TDC3)
[22] = target: PRKCI (human) (UniProt P41743)
[23] = target: PLK4 (human) (UniProt O00444)
[24] = target: RPS6KA5 KD1 (human) (UniProt O75582)
[25] = target: OXSR1 (human) (UniProt O95747)
[26] = target: TTK (human) (UniProt P33981)
[27] = target: CRK2 (P.falciparum) (UniProt P61075)
[28] = target: PRKCH (human) (UniProt P24723)
[29] = target: RPS6KA4 KD1 (human) (UniProt O75676)
[30] = target: CAMKK1 (human) (UniProt Q8N5S9)
[31] = target: MAP2K6 (human) (UniProt P52564)
[32] = target: RIPK2 (human) (UniProt O43353)
[33] = target: SRPK1 (human) (UniProt Q96SB4)
[34] = target: GRK4 (human) (UniProt P32298)
[35] = target: CDK5 (human) (UniProt Q00535)
[36] = test system: FGFR3 (human), P22607 [G697C]
[37] = target: CDKL5 (human) (UniProt O76039)
[38] = target: MYLK2 (human) (UniProt Q9H1R3)
[39] = target: MYO3A (human) (UniProt Q8NEV4)
[40] = target: DAPK2 (human) (UniProt Q9UIK4)
[41] = target: INSRR (human) (UniProt P14616)

Chain of FGFR3 (human), P22607 [G697C] (P22607 whole entry G697C, looked up): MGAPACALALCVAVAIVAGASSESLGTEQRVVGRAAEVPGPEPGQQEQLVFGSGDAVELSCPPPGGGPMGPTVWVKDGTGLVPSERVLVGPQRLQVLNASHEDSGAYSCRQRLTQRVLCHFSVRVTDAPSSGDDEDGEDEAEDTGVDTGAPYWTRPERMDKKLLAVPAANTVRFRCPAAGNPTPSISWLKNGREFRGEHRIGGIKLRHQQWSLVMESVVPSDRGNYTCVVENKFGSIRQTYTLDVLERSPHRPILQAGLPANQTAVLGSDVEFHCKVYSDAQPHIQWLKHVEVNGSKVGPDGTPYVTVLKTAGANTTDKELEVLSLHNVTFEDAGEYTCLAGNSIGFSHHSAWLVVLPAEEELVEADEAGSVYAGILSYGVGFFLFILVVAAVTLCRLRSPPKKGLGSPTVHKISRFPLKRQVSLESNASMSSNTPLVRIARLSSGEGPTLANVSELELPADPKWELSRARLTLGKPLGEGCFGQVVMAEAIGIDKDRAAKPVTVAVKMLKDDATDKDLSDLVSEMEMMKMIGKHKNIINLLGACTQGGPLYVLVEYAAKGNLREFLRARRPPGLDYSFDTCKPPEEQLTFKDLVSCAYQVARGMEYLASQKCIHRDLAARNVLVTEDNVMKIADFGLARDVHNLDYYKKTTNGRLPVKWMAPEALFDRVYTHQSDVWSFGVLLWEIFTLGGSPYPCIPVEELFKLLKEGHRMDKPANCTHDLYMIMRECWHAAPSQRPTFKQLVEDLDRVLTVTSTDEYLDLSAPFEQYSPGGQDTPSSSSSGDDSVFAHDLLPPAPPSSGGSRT
Chain of CRK2 (P.falciparum) (P61075 whole entry, looked up): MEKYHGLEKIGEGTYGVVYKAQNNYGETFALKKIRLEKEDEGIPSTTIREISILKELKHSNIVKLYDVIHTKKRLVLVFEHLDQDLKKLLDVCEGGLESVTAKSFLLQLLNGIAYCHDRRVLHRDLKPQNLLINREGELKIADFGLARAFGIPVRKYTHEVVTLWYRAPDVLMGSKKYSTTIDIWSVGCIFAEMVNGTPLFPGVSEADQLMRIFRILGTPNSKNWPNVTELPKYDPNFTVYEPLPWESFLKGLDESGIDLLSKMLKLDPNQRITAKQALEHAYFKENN
Chain of SRPK1 (human) (Q96SB4 whole entry, looked up): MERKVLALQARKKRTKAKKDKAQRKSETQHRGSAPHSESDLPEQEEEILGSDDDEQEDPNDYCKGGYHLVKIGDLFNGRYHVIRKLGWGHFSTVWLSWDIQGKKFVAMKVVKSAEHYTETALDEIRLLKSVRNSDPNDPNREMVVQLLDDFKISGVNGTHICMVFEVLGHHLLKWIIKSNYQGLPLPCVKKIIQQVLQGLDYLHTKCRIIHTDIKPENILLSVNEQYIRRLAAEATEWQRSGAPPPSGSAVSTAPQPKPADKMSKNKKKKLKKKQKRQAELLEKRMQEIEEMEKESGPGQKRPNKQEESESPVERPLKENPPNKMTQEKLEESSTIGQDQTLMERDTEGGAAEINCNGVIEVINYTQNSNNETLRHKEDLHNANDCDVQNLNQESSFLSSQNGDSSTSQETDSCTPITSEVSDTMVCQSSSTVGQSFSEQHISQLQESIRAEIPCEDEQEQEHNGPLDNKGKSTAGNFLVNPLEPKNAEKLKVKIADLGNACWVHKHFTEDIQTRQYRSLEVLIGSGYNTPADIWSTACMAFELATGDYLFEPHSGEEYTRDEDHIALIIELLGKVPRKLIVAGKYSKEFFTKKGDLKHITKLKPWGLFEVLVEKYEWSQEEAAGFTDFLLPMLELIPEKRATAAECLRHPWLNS
Chain of PLK4 (human) (O00444 whole entry, looked up): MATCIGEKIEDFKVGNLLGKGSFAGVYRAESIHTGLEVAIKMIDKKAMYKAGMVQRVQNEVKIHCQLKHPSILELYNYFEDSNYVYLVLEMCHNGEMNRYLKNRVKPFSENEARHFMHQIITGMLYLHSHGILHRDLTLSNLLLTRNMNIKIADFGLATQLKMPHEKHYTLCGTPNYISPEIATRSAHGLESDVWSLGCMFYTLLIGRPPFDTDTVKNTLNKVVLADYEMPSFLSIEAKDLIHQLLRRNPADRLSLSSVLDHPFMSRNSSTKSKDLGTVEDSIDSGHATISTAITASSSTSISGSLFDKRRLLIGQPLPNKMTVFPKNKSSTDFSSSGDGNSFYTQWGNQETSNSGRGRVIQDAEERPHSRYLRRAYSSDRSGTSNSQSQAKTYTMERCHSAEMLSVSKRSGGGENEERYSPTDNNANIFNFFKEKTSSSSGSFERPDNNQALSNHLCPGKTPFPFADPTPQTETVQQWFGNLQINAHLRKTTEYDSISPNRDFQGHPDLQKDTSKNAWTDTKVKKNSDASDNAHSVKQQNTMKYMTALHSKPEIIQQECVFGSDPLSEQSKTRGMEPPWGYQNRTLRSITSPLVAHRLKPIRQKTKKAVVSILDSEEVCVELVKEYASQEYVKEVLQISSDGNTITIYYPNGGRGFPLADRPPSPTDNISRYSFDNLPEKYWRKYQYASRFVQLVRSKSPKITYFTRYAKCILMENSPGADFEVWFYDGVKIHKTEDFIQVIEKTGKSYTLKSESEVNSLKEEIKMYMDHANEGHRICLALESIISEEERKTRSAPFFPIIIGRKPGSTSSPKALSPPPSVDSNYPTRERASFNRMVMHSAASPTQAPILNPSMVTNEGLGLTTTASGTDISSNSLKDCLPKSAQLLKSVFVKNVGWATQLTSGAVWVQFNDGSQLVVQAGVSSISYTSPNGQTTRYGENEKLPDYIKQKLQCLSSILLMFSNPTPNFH
Chain of RPS6KA4 KD1 (human) (O75676 whole entry, looked up): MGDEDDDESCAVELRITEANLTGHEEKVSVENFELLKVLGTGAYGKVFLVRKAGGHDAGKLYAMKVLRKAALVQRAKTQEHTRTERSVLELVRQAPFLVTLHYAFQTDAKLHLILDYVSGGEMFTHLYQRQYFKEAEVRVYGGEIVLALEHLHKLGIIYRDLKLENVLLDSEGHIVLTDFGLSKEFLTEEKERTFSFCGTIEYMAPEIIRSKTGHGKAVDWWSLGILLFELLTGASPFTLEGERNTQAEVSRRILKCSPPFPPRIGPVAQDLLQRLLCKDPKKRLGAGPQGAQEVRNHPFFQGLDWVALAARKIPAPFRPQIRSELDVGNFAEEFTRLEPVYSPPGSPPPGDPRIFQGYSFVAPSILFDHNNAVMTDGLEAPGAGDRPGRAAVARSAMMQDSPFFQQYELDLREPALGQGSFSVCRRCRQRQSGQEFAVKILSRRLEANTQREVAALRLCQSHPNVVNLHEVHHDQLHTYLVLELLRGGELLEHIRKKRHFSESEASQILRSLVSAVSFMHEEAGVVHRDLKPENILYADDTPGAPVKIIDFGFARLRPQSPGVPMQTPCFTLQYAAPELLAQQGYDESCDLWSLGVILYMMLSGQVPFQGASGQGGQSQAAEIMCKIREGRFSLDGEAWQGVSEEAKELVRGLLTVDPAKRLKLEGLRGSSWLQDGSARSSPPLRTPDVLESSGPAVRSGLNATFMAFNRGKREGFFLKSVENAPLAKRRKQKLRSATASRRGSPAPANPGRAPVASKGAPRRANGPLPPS
Chain of CAMK4 (human) (Q16566 whole entry, looked up): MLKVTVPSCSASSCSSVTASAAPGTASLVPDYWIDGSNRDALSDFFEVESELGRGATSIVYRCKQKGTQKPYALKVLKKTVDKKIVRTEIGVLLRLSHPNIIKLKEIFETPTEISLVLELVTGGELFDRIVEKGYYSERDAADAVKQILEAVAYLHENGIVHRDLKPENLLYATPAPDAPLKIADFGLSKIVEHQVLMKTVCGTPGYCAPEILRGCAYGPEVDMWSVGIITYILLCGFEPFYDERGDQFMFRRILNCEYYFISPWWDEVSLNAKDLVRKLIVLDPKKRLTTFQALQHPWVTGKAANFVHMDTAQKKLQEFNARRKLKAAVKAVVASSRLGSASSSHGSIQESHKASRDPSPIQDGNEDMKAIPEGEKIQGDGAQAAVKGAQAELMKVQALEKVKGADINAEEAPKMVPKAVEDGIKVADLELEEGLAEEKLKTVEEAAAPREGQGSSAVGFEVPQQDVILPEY
Chain of CDK5 (human) (Q00535 whole entry, looked up): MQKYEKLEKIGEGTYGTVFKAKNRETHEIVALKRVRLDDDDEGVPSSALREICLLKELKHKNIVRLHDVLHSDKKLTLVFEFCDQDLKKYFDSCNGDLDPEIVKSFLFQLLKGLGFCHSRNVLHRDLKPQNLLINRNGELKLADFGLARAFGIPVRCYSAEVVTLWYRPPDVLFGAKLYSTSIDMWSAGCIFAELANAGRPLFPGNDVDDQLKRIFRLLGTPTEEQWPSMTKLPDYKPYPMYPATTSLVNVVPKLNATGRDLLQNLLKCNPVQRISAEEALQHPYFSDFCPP
Chain of GRK4 (human) (P32298 whole entry, looked up): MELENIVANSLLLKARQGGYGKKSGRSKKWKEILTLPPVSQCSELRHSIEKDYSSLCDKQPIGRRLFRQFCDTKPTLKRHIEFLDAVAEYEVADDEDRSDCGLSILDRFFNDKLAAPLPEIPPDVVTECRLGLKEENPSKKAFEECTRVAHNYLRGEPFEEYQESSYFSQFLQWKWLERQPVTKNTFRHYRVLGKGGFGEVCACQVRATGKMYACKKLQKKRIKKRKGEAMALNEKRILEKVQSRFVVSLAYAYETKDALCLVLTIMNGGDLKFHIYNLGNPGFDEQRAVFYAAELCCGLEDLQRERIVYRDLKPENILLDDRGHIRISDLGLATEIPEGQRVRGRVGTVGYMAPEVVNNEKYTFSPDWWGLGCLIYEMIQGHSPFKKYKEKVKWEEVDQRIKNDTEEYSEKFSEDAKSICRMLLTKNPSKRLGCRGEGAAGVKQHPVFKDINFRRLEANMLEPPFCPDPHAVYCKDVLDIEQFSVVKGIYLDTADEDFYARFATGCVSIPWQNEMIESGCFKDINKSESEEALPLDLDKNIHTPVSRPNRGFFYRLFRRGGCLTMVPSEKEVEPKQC

Structure (SMILES): CNC(=O)c1cc(Oc2ccc(NC(=O)Nc3ccc(Cl)c(C(F)(F)F)c3)cc2)ccn1
- per cent of control [1]: 100%
- per cent of control [2]: 100%
- per cent of control [3]: 95%
- per cent of control [4]: 100%
- per cent of control [5]: 93%
- per cent of control [6]: 18%
- per cent of control [7]: 0.6%
- per cent of control [8]: 84%
- per cent of control [9]: 100%
- per cent of control [10]: 79%
- per cent of control [11]: 19%
- per cent of control [12]: 93%
- per cent of control [13]: 79%
- per cent of control [14]: 89%
- per cent of control [15]: 100%
- per cent of control [16]: 7.4%
- per cent of control [17]: 42%
- per cent of control [18]: 53%
- per cent of control [19]: 100%
- per cent of control [20]: 91%
- per cent of control [21]: 100%
- per cent of control [22]: 100%
- per cent of control [23]: 46%
- per cent of control [24]: 77%
- per cent of control [25]: 100%
- per cent of control [26]: 15%
- per cent of control [27]: 59%
- per cent of control [28]: 89%
- per cent of control [29]: 81%
- per cent of control [30]: 100%
- per cent of control [31]: 73%
- per cent of control [32]: 5.3%
- per cent of control [33]: 100%
- per cent of control [34]: 99%
- per cent of control [35]: 22%
- per cent of control [36]: 25%
- per cent of control [37]: 67%
- per cent of control [38]: 22%
- per cent of control [39]: 44%
- per cent of control [40]: 100%
- per cent of control [41]: 86%

Structure (SMILES): CNC(=O)c1cc(Oc2ccc(NC(=O)Nc3ccc(Cl)c(C(F)(F)F)c3)cc2)cc[n+]1[O-]
- per cent of control [1]: 68%
- per cent of control [2]: 100%
- per cent of control [3]: 85%
- per cent of control [4]: 100%
- per cent of control [5]: 6.5%
- per cent of control [6]: 20%
- per cent of control [7]: 0.85%
- per cent of control [8]: 23%
- per cent of control [9]: 78%
- per cent of control [10]: 78%
- per cent of control [11]: 6%
- per cent of control [12]: 96%
- per cent of control [13]: 66%
- per cent of control [14]: 100%
- per cent of control [15]: 100%
- per cent of control [16]: 9.6%
- per cent of control [17]: 54%
- per cent of control [18]: 100%
- per cent of control [19]: 100%
- per cent of control [20]: 77%
- per cent of control [21]: 76%
- per cent of control [22]: 100%
- per cent of control [23]: 5.2%
- per cent of control [24]: 59%
- per cent of control [25]: 100%
- per cent of control [26]: 9%
- per cent of control [27]: 100%
- per cent of control [28]: 84%
- per cent of control [29]: 13%
- per cent of control [30]: 79%
- per cent of control [31]: 55%
- per cent of control [32]: 9.8%
- per cent of control [33]: 100%
- per cent of control [34]: 100%
- per cent of control [35]: 12%
- per cent of control [36]: 50%
- per cent of control [37]: 27%
- per cent of control [38]: 8.7%
- per cent of control [39]: 14%
- per cent of control [40]: 100%
- per cent of control [41]: 86%
